Reference: US9751854B2 (Millennium Pharmaceuticals, Inc., priority 2014, dated 2017)

Biological target: human VPS34 (Homo sapiens (Human), UniProt Q8NEB9)
Experiment: Human VPS34 enzyme assay (Adapta TR-FRET ADP detection)
Format: biochemical
Parameters: Percent Inhibition: dose or concentration left out as unconfirmed
Conditions: for IC50: IC50 range class
Procedure: Human VPS34 Enzyme Assay Method
100 nL compounds in DMSO are added to wells of a 384 well microtitre plate (Greiner 780076). At room temperature: 5 ul VPS34 reaction buffer (Invitrogen Assay Buffer Q (diluted 1 in 5 with nanopure water) plus 2 mM DTT and 2 mM MnCl2) containing ATP (20 uM, Promega) and 200 uM PI-PS substrate (Invitrogen PV5122) is added followed immediately by 5 ul VPS34 reaction buffer (as above) containing VPS34 (5 nM, Millennium Protein Sciences Group) and the mixture is incubated with shaking at room temperature for 1 hour. Then 5 ul VPS34 stop-detect mix (as per Invitrogen Adapta Assay kit (PV5009) instructions (contains kinase quench buffer, TR-FRET buffer, Adapta Eu anti-ADP antibody and Alexa Fluor 647 ADP tracer)) is added to quench the reaction. The plates are then incubated for 30 minutes at room temperature with shaking and then read on a BMG PheraStar Plus reader.
For the assay methods described above, test compound percent inhibition, at various concentrations, is calculated relative to control (DMSO and EDTA) treated samples. Compound concentration versus percent inhibition curves are fitted to generate IC50 values.

human VPS34, sequence (Q8NEB9 whole entry): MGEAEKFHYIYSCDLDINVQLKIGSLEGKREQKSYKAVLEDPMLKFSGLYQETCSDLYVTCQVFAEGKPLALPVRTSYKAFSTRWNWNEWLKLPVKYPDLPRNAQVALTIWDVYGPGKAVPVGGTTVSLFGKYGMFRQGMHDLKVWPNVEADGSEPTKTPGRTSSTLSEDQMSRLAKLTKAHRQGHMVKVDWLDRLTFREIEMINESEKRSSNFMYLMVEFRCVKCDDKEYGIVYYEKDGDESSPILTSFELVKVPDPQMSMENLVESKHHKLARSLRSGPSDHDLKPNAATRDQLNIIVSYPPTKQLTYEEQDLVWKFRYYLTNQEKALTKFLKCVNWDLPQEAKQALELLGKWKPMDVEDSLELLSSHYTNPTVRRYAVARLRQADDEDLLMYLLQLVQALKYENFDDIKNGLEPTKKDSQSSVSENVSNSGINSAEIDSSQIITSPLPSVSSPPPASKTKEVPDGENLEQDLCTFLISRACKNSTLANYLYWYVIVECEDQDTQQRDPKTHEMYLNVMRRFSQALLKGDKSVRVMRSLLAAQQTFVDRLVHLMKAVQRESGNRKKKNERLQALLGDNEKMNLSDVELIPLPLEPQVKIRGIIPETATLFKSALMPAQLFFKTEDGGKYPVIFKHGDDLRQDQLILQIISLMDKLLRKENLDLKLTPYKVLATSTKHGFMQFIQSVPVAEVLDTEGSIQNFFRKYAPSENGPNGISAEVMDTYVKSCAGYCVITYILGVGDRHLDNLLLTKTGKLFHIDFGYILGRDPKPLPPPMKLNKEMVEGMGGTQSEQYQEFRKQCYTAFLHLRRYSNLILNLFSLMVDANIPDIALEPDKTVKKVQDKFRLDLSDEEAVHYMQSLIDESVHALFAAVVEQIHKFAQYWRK

| Compound | IC50 [nM] | Percent Inhibition [%] |
| --- | --- | --- |
| CC(=O)Nc1cc(-c2cnc(C)c(NS(=O)(=O)c3ccc(C)cc3)c2)ccn1 [Compound I-80, N-(6-methyl-5-{[(4-methylphenyl)sulfonyl]amino]-3,4′-bipyridin-2′-yl)acetamide] | < 10 |  |
| CC(=O)Nc1cc(-c2cnc(Cl)c(C(=O)N(C)C)c2)ccn1 [Compound I-213, 2′-acetamido-6-chloro-N,N-dimethyl-3,4′-bipyridine-5-carboxamide] | 50 to 100 |  |
| CC(=O)Nc1cc(-c2cnc(N(C)C)c(C(=O)N(C)C)c2)ccn1 [Compound I-162, 2′-acetamido-6-(dimethylamino)-N,N-dimethyl-3,4′-bipyridine-5-carboxamide] | 10 to 50 |  |
| CC(=O)Nc1cc(-c2cnc(C)c(OCC3CC3)c2)ccn1 [Compound I-492, N-[5-(cyclopropylmethoxy)-6-methyl-3,4′-bipyridin-2′-yl]acetamide] | > 100 |  |
| Cc1ncc(-c2ccnc(-n3cnc4c(C)nccc43)c2)cc1NS(=O)(=O)N(C)C [Compound I-263, N,N-dimethyl-N′-[6-methyl-2′-(4-methyl-1H-imidazol[4,5-c]pyridin-1-yl)-3,4′-bipyridin-5-yl]sulfuric diamide] | > 100 |  |
| CC(=O)Nc1cc(-c2cnc(N)c(S(=O)(=O)Cc3ccc(F)cc3F)c2)ccn1 [Compound I-138, N-[6-amino-5-[(2,4-difluorobenzyl)sulfonyl]-3,4′-bipyridin-2′-yl]acetamide] | 10 to 50 |  |
| CC(=O)Nc1cc(-c2cnc(C)c(NS(=O)(=O)c3cccc(Cl)c3Cl)c2)ccn1 [Compound I-342, N-(5-{[(2,3-dichlorophenyl)sulfonyl]amino}-6-methyl-3,4′-bipyridin-2′-yl)acetamide] | < 10 | >99 |
| CC(=O)Nc1cc(-c2cnc(N)c(S(=O)(=O)NCC(C)C)c2)ccn1 [Compound I-73, N-[6-amino-5-(isobutylsulfamoyl)-3,4′-bipyridin-2′-yl]acetamide] | < 10 | >99 |
| COc1ncc(-c2ccnc(NC(C)=O)c2)cc1C(=O)N(C)c1ccc(F)cc1F [Compound I-423, 2′-aceramido-N-(2,4-difluorophenyl)-6-methoxy-N-methyl-3,4′-bipyridine-5-carboxamide] | 10 to 50 |  |
| CC(=O)Nc1cc(-c2cncc(S(C)(=O)=O)c2)ccn1 [Compound I-51, N-[5-(methylsulfonyl)-3,4′-bipyridin-2′-yl]acetamide] | 50 to 100 |  |
| CC(=O)Nc1cc(-c2cnc(C)c(NS(=O)(=O)c3cc(C)ccc3C)c2)ccn1 [Compound I-178, N-(5-{[(2,5-dimethylphenyl)sulfonyl]amino}-6-methyl-3,4′-bipyridin-2′-yl)acetamide] | < 10 |  |
| CC(=O)Nc1cc(-c2cnc(C)c(N(C)S(C)(=O)=O)c2)ccn1 [Compound I-96, N-{6-methyl-5-[methyl(methylsulfonyl)amino]-3,4′-bipyridin-2′-yl}acetamide] | 10 to 50 |  |
| COc1ncc(-c2ccnc(NC(C)=O)c2)cc1S(=O)(=O)Nc1ccccc1 [Compound I-39, N-[6-methoxy-5-(phenylsulfamoyl)-3,4′-bipyridin-2′-yl]acetamide] | < 10 |  |
| CC(=O)Nc1cc(-c2cnc(N)c(S(=O)(=O)O)c2)ccn1 [Compound I-122, 2′-acetamido-6-amino-3,4′-bipyridine-5-sulfonic acid] | 50 to 100 |  |
| CC(=O)Nc1cc(-c2cncc(S(=O)(=O)NC3C4CC5CC(C4)CC3C5)c2)ccn1 (stereo not shown) [Compound I-318, N-[5-(adamantan-2-ylsulfamoyl)-3,4′-bipyridin-2′-yl]acetamide] | 10 to 50 |  |
| N=C(N)NC(=O)c1cc(-c2ccnc(Nc3ccncn3)c2)cnc1N [Compound I-216, 6-Amino-N-carbamimidoyl-2′-(pyrimidin-4-ylamino)-3,4′-bipyridine-5-carboxamide] | 50 to 100 |  |
| CC(=O)Nc1cc(-c2cnc(N)c(NCC3CC3)c2)ccn1 [Compound I-35, N-{6-amino-5-[(cyclopropylmethyl)amino]-3,4′-bipyridin-2′-yl}acetamide] | 10 to 50 |  |
| CNc1ncc(-c2ccnc(NC(C)=O)c2)cc1C(=O)NC12CC(C1)C2 [Compound I-160, 2′-acetamido-N-(bicyclo[1.1.1]pent-1-yl)-6-(methylamino)-3,4′-bipyridine-5-carboxamide] | 10 to 50 |  |
| CC(=O)Nc1cc(-c2cnc(N)c(S(=O)(=O)NC3CCCCC3)c2)ccn1 [Compound I-101, N-[6-amino-5-(cyclohexylsulfamoyl)-3,4′-bipyridin-2′-yl]acetamide] | < 10 |  |
| Cc1ncc(-c2ccnc(Nc3cnccn3)c2)cc1NS(=O)(=O)c1ccc(F)cc1F [Compound I-310, 2,4-difluoro-N-[6-methyl-2′-(pyrazin-2-ylamino)-3,4′-bipyridin-5-yl]benzenesulfonamide] | < 10 |  |
| COc1ncc(-c2ccnc(NC(C)=O)c2)cc1S(=O)(=O)Nc1ccc(F)cc1F [Compound I-107, N-{5-[(2,4-difluorophenyl)sulfamoyl]-6-methoxy-3,4′-bipyridin-2′-yl]acetamide] | < 10 |  |

| Compound | IC50 [nM] | Percent Inhibition [%] |
| --- | --- | --- |
| CC(=O)Nc1cc(-c2cnc(C)c(NS(=O)(=O)c3cccc(C(C)(C)C)c3)c2)ccn1 [Compound I-70] | < 10 |  |
| CC(=O)Nc1cc(-c2cnc(N(C)C)c(C(=O)NC34CC(C3)C4)c2)ccn1 [Compound I-283, 2′-Acetamido-N-(bicyclo[1.1.1]pent-1-yl)-6-(dimethylamino)-3,4′-bipyridine-5-carboxamide] | 10 to 50 |  |
| CC(=O)Nc1cc(-c2cnc(Cl)c(NS(=O)(=O)N(C)C)c2)ccn1 [Compound I-372, N-{6-chloro-5-[(dimethylsulfamoyl)amino]-3,4′-bipyridin-2′-yl}acetamide] | < 10 | >99 |
| Cc1nccc(Nc2cc(-c3cnc(C)c(NC(=O)N4CC(F)(F)C4)c3)ccn2)n1 [Compound I-482, 3,3-difluoro-N-{6-methyl-2′-[(2-methylpyrimidin-4-yl)amino]-3,4′-bipyridin-5-yl}azetidine-1-carboxamide] | 50 to 100 |  |
| CC(=O)Nc1cc(-c2cnc(C)c(N3CCCNC3=O)c2)ccn1 [Compound I-460, N-[6-methyl-5-(2-oxotetrahydropyrimidin-1(2H)-yl)-3,4′-bipyridin-2′-yl]acetamide] | > 100 |  |
| CC(=O)Nc1cc(-c2cnc3[nH]cc(S(=O)(=O)N4CCN(C)CC4)c3c2)ccn1 [Compound I-103, N-(4-{3-[(4-methylpiperazin-1-yl)sulfonyl]-1H-pyrrolo[2,3-b]pyridin-5-yl]pyridin-2-yl)acetamide] | < 10 |  |
| CC(=O)Nc1cc(-c2cc(NS(=O)(=O)c3ccc(F)cc3F)c(C)[n+]([O-])c2)ccn1 [Compound I-258, N-[4-(5-{[(2,4-difluorophenyl)sulfonyl]amino}-6-methyl-1-oxidopyridin-3-yl)pyridin-2-yl]acetamide] | 10 to 50 |  |
| CC(=O)Nc1cc(-c2cnc(N)c(S(=O)(=O)C(C)C)c2)ccn1 [Compound I-175, N-[6-amino-5-(isopropylsulfonyl)-3,4′-bipyridin-2′-yl]acetamide] | 10 to 50 |  |
| Cc1ncc(-c2ccnc(NC(=O)C3CC3(F)F)c2)cc1NS(=O)(=O)N(C)C (single isomer, unassigned) [Compound I-499] | 10 to 50 | >99 |
| Cc1ccc(Nc2cc(-c3cnc(C)c(NS(=O)(=O)c4ccc(F)cc4F)c3)ccn2)nn1 [Compound I-307, 2,4-difluoro-N-{6-methyl-2′-[(6-methylpyridazin-3-yl)amino]-3,4′-bipyridin-5-yl}benzenesulfonamide] | 10 to 50 |  |
| CC(=O)Nc1cc(-c2cnc(Cl)c(NS(=O)(=O)c3cc(F)ccc3F)c2C)ccn1 [Compound I-227, N-(6-chloro-5-{[(2,5-difluorophenyl)sulfonyl]amino)-4-methyl-3,4′-bipyridin-2′-yl)acetamide] | 10 to 50 |  |
| CC(=O)Nc1cc(-c2cncc(N(CC3CC3)S(C)(=O)=O)c2)ccn1 [Compound I-202, N-{5-[(cyclopropylmethyl)(methylsulfonyl)amino]-3,4′-bipyridin-2′-yl}acetamide] | 50 to 100 |  |
| CC(=O)Nc1cc(-c2cnc3c(c2)NS(=O)(=O)N3CC2CC2)ccn1 [Compound I-68, N-{4-[3-(cyclopropylmethyl)-2,2-dioxido-1,3-dihydro[1,2,5]thiadiazolo[3,4-b]pyridin-6-yl)pyridin-2-yl}acetamide] | > 100 |  |
| CC(=O)Nc1cc(-c2cnc(C)c(NS(=O)(=O)c3nccn3C)c2)ccn1 [Compound I-92] |  | >99 |
| Cc1ncc(-c2ccnc(Nc3nc4ccccc4s3)c2)cc1NS(=O)(=O)c1ccc(F)cc1F [Compound I-271, N-[2′-(1,3-benzothiazol-2-ylamino)-6-methyl-3,4′-bipyridin-5-yl]-2,4-difluorobenzenesulfonamide] | 10 to 50 |  |
| CC(=O)Nc1cc(-c2cnc(C)c(NS(C)(=O)=O)c2)ccn1 [Compound I-167, N-{6-methyl-5-[(methylsulfonyl)amino]-3,4′-bipyridin-2′-yl}acetamide] | 10 to 50 |  |
| CC(=O)Nc1cc(-c2cnc(N)c(C(=O)N3CCC(C)CC3)c2)ccn1 [Compound I-81, N-{6-amino-5-[[4-methylpiperidin-1-yl)carbonyl]-3,4′-bipyridin-2′-yl}acetamide] | < 10 |  |
| CC(=O)Nc1cc(-c2cc(NS(=O)(=O)c3ccc(F)cc3F)c3ncnn3c2)ccn1 [Compound I-340, N-[4-(8-{[(2,4-difluorophenyl)sulfonyl]amino}[1,2,4]triazolo[1,5-a]pyridin-6-yl)pyridin-2-yl]acetamide] | 10 to 50 |  |
| COc1ncc(-c2ccnc(NC(C)=O)c2)cc1NS(=O)(=O)c1ccc(F)cc1F [Compound I-104, N-(5-{[(2,4-difluorophenyl)sulfonyl]amino}-6-methoxy-3,4′-bipyridin-2′-yl)acetamide] | < 10 |  |
| COc1ncc(-c2ccnc(NC(C)=O)c2)cc1S(=O)(=O)NC12CC(C1)C2 [Compound I-470] | 10 to 50 |  |
| CC(=O)Nc1cc(-c2cncc(C(=O)/C=C/c3ccc(F)cc3)c2)ccn1 [Compound I-198, N-[5-[(2E)-3-(4-fluorophenyl)prop-2-enoyl]-3,4′-bipyridin-2′-yl}acetamide] | > 100 |  |
